Laboratory results as given in ChEMBL document CHEMBL5236564, “An overview of the development of EED inhibitors to disable the PRC2 function” (RSC Med Chem, 2022).
pIC50, pKd: −log10 of the molar value. Blank lines part the entries; values can stand above or below the compound they belong to. Bridge positions count the residues as written; N and C are the ends. Square brackets hold non-standard residues; d marks the D form. Peptide text beside a SMILES is read from it. ξ: configuration not given here. S5 = C=CCCC[C@](C)(N)C(=O)O; ξIle = CC[C@H](C)C(N)C(=O)O

Legend:
[1] = Inhibition of human N- terminal 6 his sumo-tagged EED (81 to 441 residues)/EZH2(39 to 63 residues) (unknown origin) interaction expressed in Escherichia coli BL21(DE3) incubated for 2 hrs by fluorescence polarization based competitive assay
[2] = Inhibition of EED/EZH2 (unknown origin) interaction by fluorescence polarization assay; set-up: species or system Homo sapiens
[3] = Inhibition of PRC2 (unknown origin) using H3K27me0 as peptide substrate by LC-MS based analysis; set-up: species or system Homo sapiens
EZH2/SUZ12/EED complex = EZH2/SUZ12/EED complex (Homo sapiens, UniProt O75530+Q15022+Q15910); experiment: Binding affinity to PRC2 complex of EZH2-EED-SUZ12 (unknown origin) assessed as dissociation constant by isothermal titration calorimetry method; format: protein-complex assay
EZH2/SUZ12/EED complex, sequence (Q15910 whole entry): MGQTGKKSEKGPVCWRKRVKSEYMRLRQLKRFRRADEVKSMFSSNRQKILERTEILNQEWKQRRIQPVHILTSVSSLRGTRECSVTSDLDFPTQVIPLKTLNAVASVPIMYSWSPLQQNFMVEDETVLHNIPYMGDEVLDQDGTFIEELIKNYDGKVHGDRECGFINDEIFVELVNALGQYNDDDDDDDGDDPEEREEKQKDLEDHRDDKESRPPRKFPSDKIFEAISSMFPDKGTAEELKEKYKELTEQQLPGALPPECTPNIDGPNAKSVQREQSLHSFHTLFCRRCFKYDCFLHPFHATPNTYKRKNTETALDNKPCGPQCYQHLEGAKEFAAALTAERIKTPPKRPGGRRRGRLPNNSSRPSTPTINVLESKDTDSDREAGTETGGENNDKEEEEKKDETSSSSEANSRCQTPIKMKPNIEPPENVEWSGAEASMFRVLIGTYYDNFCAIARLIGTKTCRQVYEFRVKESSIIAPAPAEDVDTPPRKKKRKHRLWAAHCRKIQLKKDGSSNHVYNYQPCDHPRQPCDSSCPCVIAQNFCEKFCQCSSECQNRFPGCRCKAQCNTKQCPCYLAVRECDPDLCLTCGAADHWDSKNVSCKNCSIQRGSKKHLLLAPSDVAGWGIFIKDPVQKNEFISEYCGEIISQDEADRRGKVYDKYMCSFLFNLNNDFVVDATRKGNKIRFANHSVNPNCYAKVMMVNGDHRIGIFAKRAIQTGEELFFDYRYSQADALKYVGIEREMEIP
EZH2/SUZ12/EED complex, sequence (O75530 whole entry): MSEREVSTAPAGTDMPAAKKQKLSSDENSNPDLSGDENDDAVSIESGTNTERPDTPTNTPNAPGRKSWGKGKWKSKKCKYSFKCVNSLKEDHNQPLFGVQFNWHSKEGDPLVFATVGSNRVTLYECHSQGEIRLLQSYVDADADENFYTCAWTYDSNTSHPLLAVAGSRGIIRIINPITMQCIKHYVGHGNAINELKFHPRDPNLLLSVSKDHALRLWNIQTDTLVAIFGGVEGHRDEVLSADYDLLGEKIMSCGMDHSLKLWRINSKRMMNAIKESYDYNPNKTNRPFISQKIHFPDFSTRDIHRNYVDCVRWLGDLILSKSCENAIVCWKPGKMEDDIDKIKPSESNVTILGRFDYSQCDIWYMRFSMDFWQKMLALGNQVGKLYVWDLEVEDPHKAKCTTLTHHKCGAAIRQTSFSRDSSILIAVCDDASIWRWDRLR
EZH2/SUZ12/EED complex, sequence (Q15022 whole entry): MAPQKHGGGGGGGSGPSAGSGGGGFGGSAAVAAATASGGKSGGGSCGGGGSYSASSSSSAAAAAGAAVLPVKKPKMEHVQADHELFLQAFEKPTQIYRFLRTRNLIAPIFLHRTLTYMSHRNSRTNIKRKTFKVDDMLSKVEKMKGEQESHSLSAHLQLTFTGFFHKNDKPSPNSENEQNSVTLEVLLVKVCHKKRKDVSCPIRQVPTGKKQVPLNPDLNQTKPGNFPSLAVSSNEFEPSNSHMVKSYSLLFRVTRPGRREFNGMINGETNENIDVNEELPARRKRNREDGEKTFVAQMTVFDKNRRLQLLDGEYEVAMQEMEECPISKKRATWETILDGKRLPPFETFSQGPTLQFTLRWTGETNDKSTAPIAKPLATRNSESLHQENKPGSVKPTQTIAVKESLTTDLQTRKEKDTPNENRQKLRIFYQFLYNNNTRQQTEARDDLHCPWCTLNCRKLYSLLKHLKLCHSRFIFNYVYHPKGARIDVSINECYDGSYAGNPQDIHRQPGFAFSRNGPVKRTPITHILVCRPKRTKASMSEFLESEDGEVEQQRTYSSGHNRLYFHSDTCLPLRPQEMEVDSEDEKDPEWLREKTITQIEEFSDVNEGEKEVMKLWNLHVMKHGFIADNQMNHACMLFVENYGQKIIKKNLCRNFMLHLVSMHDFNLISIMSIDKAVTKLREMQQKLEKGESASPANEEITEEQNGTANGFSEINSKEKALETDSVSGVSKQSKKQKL

KARPAS-422 [4] = experiment: Synergistic growth inhibition against human KARPAS-422 cells assessed as reduction in cell proliferation by measuring synergistic score at upto 10 uM measured after 6 days in presence of EI1; format: functional; conditions: time 6 day
KARPAS-422 [5] = experiment: Synergistic growth inhibition against human KARPAS-422 cells assessed as reduction in H3K27me3 level by measuring synergistic score upto 10 uM measured after 4 days in presence of EI1; format: functional; conditions: time 4 day
KARPAS-422 [6] = experiment: Antitumor activity against human KARPAS-422 cells xenografted in mouse at 40 mg/kg via oral gavage and mesured after 32 days by caliper method relative to control; format: functional; conditions: KARPAS-422, 768 h, time 32 day, read-out: TGI
[7] = target: EZH2/SUZ12/EED complex (Homo sapiens) (UniProt Q15910+O75530+Q15022)
EZH2/SUZ12/EED complex (Homo sapiens), sequence (O75530 2-441 partner limits assumed): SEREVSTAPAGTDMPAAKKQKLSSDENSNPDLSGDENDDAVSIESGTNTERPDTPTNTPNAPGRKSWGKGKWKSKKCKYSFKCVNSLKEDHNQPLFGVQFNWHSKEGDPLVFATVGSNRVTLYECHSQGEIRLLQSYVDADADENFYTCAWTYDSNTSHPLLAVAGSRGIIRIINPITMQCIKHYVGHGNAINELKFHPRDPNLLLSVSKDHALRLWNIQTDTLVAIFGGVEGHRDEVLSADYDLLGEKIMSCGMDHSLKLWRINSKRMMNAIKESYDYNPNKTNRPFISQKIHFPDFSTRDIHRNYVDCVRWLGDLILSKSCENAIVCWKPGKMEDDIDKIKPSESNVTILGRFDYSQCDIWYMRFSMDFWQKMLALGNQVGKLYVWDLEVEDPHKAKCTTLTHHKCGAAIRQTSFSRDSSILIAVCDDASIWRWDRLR
EZH2/SUZ12/EED complex (Homo sapiens), sequence (Q15022 whole entry partner): as the sequence (Q15022 whole entry) above
EZH2/SUZ12/EED complex (Homo sapiens), sequence (Q15910 whole entry): as the sequence (Q15910 whole entry) above
Description: Stabilization of PRC2 complex of EZH2-EED-SUZ12 (unknown origin) assessed as thermal stability by measuring increase in melting temperature by thermal shift assay

Polycomb protein EED [8] = target: T1, Polycomb protein EED (Homo sapiens, UniProt O75530); experiment: Binding affinity to C-terminal histidine tagged EED (unknown origin) expressed in Escherichia coli BL21(DE3) incubated for 15 mins by fluorescence polarization analysis
Target sequence in this assay (O75530 whole entry): as the sequence (O75530 whole entry) above

[9] = Synergistic cell viability against human MLL-AF9 cells by measuring combination index score at 0.3 to 3 uM measured after 7 days in presence of GSK126; format: functional; conditions: dose 0.3-3 µM; time 7 day
KARPAS-422 [10] = experiment: Synergistic cell viability against human KARPAS-422 cells by measuring combination index score at 0.3 to 3 uM measured after 7 days in presence of GSK126; format: functional; conditions: dose 0.3-3 µM; time 7 day
Polycomb protein EED [11] = target: T1, Polycomb protein EED; experiment: Displacement of H3K27me3 from EED (unknown origin) by competitive binding assay
Target sequence in this assay (O75530 whole entry): as above

KARPAS-422 [12] = experiment: Antitumor activity against human KARPAS-422 cells xenografted in mouse assessed as tumor growth inhibition at 100 mg/kg, po administered twice daily for 36 days relative to control; format: functional; conditions: KARPAS-422, 864 h, time 36 day, read-out: TGI
Pfeiffer = experiment: Antitumor activity against human Pfeiffer cells xenografted in mouse assessed as tumor growth inhibition at 100 mg/kg, po administered twice daily for 36 days relative to control; format: functional; conditions: 864 h, time 36 day, read-out: TGI
Polycomb protein EED [13] = target: T1, Polycomb protein EED; experiment: Stabilization of EED (unknown origin) assessed as change in melting temperature by thermal shift assay; conditions: tested as the 2H-labelled form
Target sequence in this assay (O75530 2-441 limits assumed): as the sequence (O75530 2-441 partner limits assumed) above

[14] = Oral bioavailability in mouse; format: ADME, organism-based; conditions: in vivo
Polycomb protein EED [15] = target: T1, Polycomb protein EED; experiment: Binding affinity to his tagged EED (1 to 441 residues) (unknown origin) incubated for 20 mins in presence of biotinylated H3K27me3 peptide (19 to 33 residues) by alphascreen competitive binding assay
Target sequence in this assay (O75530 whole entry): as the sequence (O75530 whole entry) above

pIC50 [1]: 4.26
SMILES: Cc1sc(NC(=O)CCCCC(=O)Nc2sc(C)c(C)c2C(N)=O)c(C(N)=O)c1C

pIC50 [2]: 3.64
SMILES: CCCCC1C(=O)N(c2ccccc2)N(c2ccc(O)cc2)C1=O (stereo not given) [OXYPHENBUTAZONE ANHYDROUS]

SMILES: CS(=O)(=O)c1ccc(-c2cnc(NCc3ccco3)n3cnnc23)cc1
pIC50 [3]: 7.63 | pKd (EZH2/SUZ12/EED complex): 7.09 | Activity (KARPAS-422 [4]): 1.67 | Activity (KARPAS-422 [5]): 2.17 | inhibition in vivo at 40 mg/kg (KARPAS-422 [6]): 100% | ΔTm [7]: > 8 °C

pIC50 [1]: 4.19
SMILES: Cc1ccc(C(C2=C(O)CC(C)(C)CC2=O)C2C(=O)CC(C)(C)CC2=O)s1 (stereo not given)

SMILES: CC[C@H](C)C1NC(=O)[C@H](CCCCN)NC(=O)[C@@](C)(NC(=O)[C@H](CCCNC(=N)N)NC(=O)[C@H](CC(N)=O)NC(=O)[C@H](CO)NC(=O)[C@H](CO)NC(=O)[C@H](Cc2ccccc2)NC(C)=O)CCC/C=C/CCC[C@@](C)(C(=O)N[C@@H](CCCNC(=N)N)C(=O)N[C@H](C(=O)N[C@@H](CCC(N)=O)C(=O)N[C@H](C(=O)N[C@@H](CC(C)C)C(=O)N[C@@H](CC(N)=O)C(=O)N[C@@H](CCC(N)=O)C(=O)N[C@@H](CCC(=O)O)C(=O)N[C@@H](Cc2c[nH]c3ccccc23)C(=O)N[C@@H](CCCCN)C(=O)N[C@@H](CCC(N)=O)C(=O)N[C@@H](CCCNC(=N)N)C(=O)N[C@@H](CCCNC(=N)N)C(=O)N[C@H](C(=O)N[C@@H](CCC(N)=O)C(=O)N2CCC[C@H]2C(=O)N[C@H](C(=O)O)C(C)C)[C@@H](C)CC)[C@@H](C)CC)[C@@H](C)O)NC(=O)[C@H](CC(C)C)NC1=O (stereo not given in full) (Ac-FSSNR[S5]K[ξIle]L[S5]RTQILNQEWKQRRIQPV-OH; staple (E) 6-10)
pKd (Polycomb protein EED [8]): 9.49 | Activity [9]: 0.11 | Activity (KARPAS-422 [10]): 0.74

SMILES: COC(=O)C1=C(C)NC(C)=C(C(=O)OC)C1c1ccccc1[N+](=O)[O-] [NIFEDIPINE]
pIC50 [2]: 3.47

pIC50 [2]: 4.81
SMILES: CN1CCc2cccc3c2[C@H]1Cc1ccc(O)c(O)c1-3 [APOMORPHINE]

SMILES: [2H]C([2H])(Nc1ncc(-c2cccnc2C)c(=O)[nH]1)c1c(F)ccc2c1CCO2
pIC50 (Polycomb protein EED [11]): 8.35 | inhibition in vivo at 100 mg/kg (KARPAS-422 [12]): 85% | inhibition in vivo at 100 mg/kg (Pfeiffer): 96%

ΔTm (Polycomb protein EED [13]): 6 °C
SMILES: Cc1ncccc1-c1cnc(NCc2c(F)ccc3c2CCO3)[nH]c1=O

bioavailability [14]: 0.2%
SMILES: CC[C@@H](C)n1cc(C)c2c(C(=O)NCc3c(C)cc(C)[nH]c3=O)cc(-c3ccc(N4CCNCC4)nc3)cc21

pIC50 (Polycomb protein EED [15]): 5.06
SMILES: Cc1cc(C)n(-c2cc(N3CCCc4ccccc43)ccc2[N+](=O)[O-])n1
